# Source: US20150174158A1, “[…] NITRIC OXIDE FOR TREATING RESPIRATORY DISEASES” (Advanced Inhalation Therapies (AIT) Ltd., priority 2012, published 2015)
# How the values were obtained:
# methemoglobin (SpMet) = assay: Phase I safety study: methemoglobin (SpMet) by pulse oximeter; type: in vivo, human
# Description: (§1) After obtaining informed consent, treatment was initiated within 5 days of enrollment. Subjects were housed in a hospital ward and received 160 ppm gNO for 30 minutes every four hours (Q4h), five times a day, for five consecutive days by inhalation. Subjects returned for follow-up evaluations 3, 7 and 21 days after the final gNO administration. Subject safety was determined by monitoring vital signs, methemoglobin levels, lung function, blood chemistry, hematology, prothrombin time, inflammatory cytokine/chemokines levels and endothelial activation. These parameters were compared to baseline and at various time-points during and after gNO administration.
# The levels of gNO, NO2, O2 and methemoglobin were monitored during the administration of gNO. The target gas mixture was 160 ppm gNO with a nitrogen dioxide (NO2) level of less than 5 ppm and an oxygen (O2) level ranging from 21% to 25%. Inspiratory NO, NO2 and O2 levels were continuously monitored by sampling from the mouthpiece sample port located about 6 millimeters from the mouth of the subject with an AeroNOx (Pulmonox, AB, Canada) NO, NO2 and O2 electrochemical analyzer. Delivery safety was determined by the number of occasions that NO2 exceeded 5 ppm, gNO exceeding 10% variation and O2 dropping below 20% during gNO administration. A commercially available noninvasive pulse oximeter (Rad 57, Masimo Corporation, USA) was used to measure saturation levels at the periphery of methemoglobin (SpMet).
# (§2) These parameters were measured continuously during every gNO administration course and for 3.5 hours after the first treatment of the day. Daily serum samples were collected and frozen at −80° C. and the serum […] level was measured using the Griess reagent.
# FIGS. 4A-B present results of monitoring methemoglobin levels before, during and after inhalation of 160 ppm of gaseous nitric oxide by 10 healthy human individuals, undergone 5 gNO administration courses daily, each lasting 30 minutes, for 5 consecutive days, while methemoglobin levels were measured using a pulse oximeter, wherein FIG. 4A is a plot of methemoglobin levels by percents as a function of time as measured before (time point 0), during 250 individual 30 minutes gNO administration courses (time interval of 0 to 30 minutes), after the courses (time interval of 30 to 60 minutes) and at 120 minutes, 180 minutes and 240 minutes after gNO administration was discontinued, and FIG. 4B is a plot of methemoglobin levels by percents as a function of time as measured at the beginning and end of 30 minutes gNO administration courses given over the course of 5 days, and followed 8, 12 and 26 days after gNO administration was discontinued.
# [1] = Phase I safety study: serum nitrite/nitrate by Griess reagent; type: in vivo, human; details: 160 ppm gNO 30 min, 5 times a day, 5 days
# Description: as §1, §2
# [2] = Phase I safety study: hematology, blood chemistry, coagulation; type: in vivo, human; details: baseline 0.15 (SD=0.12); SD=0.19; p=0.104
# Description: as §1
# Hematological assessment included a complete blood count and differentials (hemoglobin, hematocrit, red blood cell count, white blood cell count, white blood cell differential, and platelet count) were obtained in order to monitor blood chemistry, hematology and inflammation measurements. […] The effect of gNO on coagulation was determined by the prothrombin time (PT) and its derived measures of prothrombin ratio (PR) and international normalized ratio (INR). […] Plasma cytokine levels were assessed using the human inflammation cytokine bead array kit (BD Bioscience, Canada). Plasma levels of angiopoietin Ang-1 and Ang-2 were determined by ELISA (R&D Systems, USA).
# S. aureus (ATCC) = details: 200 ppm gNO; saline; cited from earlier work
# MRSA = details: 200 ppm gNO; saline; cited from earlier work
# Klebsiella sp. #2 = details: 200 ppm gNO; saline; cited from earlier work
# S. maltophilia = details: 200 ppm gNO; saline; cited from earlier work
# Enterobacter sp. = details: 200 ppm gNO; saline; cited from earlier work
# E. Coli = details: 200 ppm gNO; saline; cited from earlier work
# Mycobacterium = details: 200 ppm gNO; saline; cited from earlier work
# [3] = tested on: P. aeruginosa and S. aureus; details: cited from earlier work
# [4] = tested on: influenza A/victoria/H3N2; details: 160 ppm gNO, cited from earlier work
# [5] = cited from earlier work
# [6] = gNO concentrations below 200 ppm, 6 hours/day for 28 days; cited from earlier work
# [7] = tested on: five planktonic species of methicillin resistant S. aureous (MRSA); details: 1,600 ppm hours of gNO; cited from earlier work
# [8] = tested on: Pseudomonas aeruginosa pneumonia; details: 160 ppm gNO, intermittent 30 minute exposures; cited from earlier work
structure (smiles),measurement,setting,value
"[N]=O [gNO, nitric oxide]",residual increase in SpMet at follow-up,"methemoglobin (SpMet); 3, 7 and 21 days after final exposure",did not show any residual increase
same,time for SpMet to return to baseline,methemoglobin (SpMet); after 30 min 160 ppm gNO,3.5 h
same,highest SpMet,"methemoglobin (SpMet); end of the 30 minutes treatment, 160 ppm gNO, baseline 0.16 (SD=0.10)",2.5%
same,accumulative effect on SpMet,methemoglobin (SpMet); five daily treatments for five consecutive days,no accumulative or lingering effect
same,average increase of SpMet,"methemoglobin (SpMet); single 30 min treatment course, 160 ppm gNO, SD=0.08",0.9%
same,serum nitrite/nitrate levels vs baseline,[1],no significant differences
same,"eosinophil cell numbers, end of study",[2],0.19 giga/L
same,LD100,S. aureus (ATCC),4 h
same,Latent Period,S. aureus (ATCC),3 h
same,−2.5 Log10,S. aureus (ATCC),3.3 hours
same,LD100,MRSA,5 h
same,Latent Period,MRSA,3 h
same,−2.5 Log10,MRSA,4.2 hours
same,LD100,Klebsiella sp. #2,5 h
same,Latent Period,Klebsiella sp. #2,2 h
same,−2.5 Log10,Klebsiella sp. #2,4.1 hours
same,LD100,S. maltophilia,4 h
same,Latent Period,S. maltophilia,2 h
same,−2.5 Log10,S. maltophilia,2.8 hours
same,LD100,Enterobacter sp.,6 h
same,Latent Period,Enterobacter sp.,4 h
same,−2.5 Log10,Enterobacter sp.,5.3 hours
same,LD100,E. Coli,5 h
same,Latent Period,E. Coli,3 h
same,−2.5 Log10,E. Coli,4.2 hours
same,LD100,Mycobacterium,10 h
same,Latent Period,Mycobacterium,7 h
same,−2.5 Log10,Mycobacterium,9.2 hours
same,survival (downward bactericidal trend),"[3]; 50-160 ppm gNO vs medical air, agar plates",5-10%
same,time required to achieve >90% reduction of colony formation,[3]; gNO greater than 120 ppm,8 to 12 h
same,reduction of colony formation,"[3]; levels of gNO greater than 120 ppm, agar plates",greater than 90%
same,infectivity (plaque formation),[4],capable of reducing the infectivity
same,"anti-viral effect, intermittent vs single exposure",[4]; three 30 minute treatments Q4h vs one 30 minute dose,more evident in the intermittent form of exposure
same,radius of action from site of origin,[5]; in vivo,approximately 200 microns
same,"nitrate excreted in the urine, share of nitric oxide dose inhaled",[5]; predominant metabolite,more than 70%
same,deaths,[6],No deaths occurred
same,population of planktonic MRSA strains,[7],A reduction in the population
same,pulmonary bioburden and leukocyte infiltration,[8],effective to reduce the pulmonary bioburden and leukocyte infiltration
